Key:
[1] = target: Dual specificity tyrosine-phosphorylation-regulated kinase 3 (Homo sapiens) (UniProt O43781); assay: % Activity remaining of DYRK3 in the Dundee kinase panel at 1.0 µM; conditions: Compound concentration 1.0 uM
[2] = target: Death-associated protein kinase 1 (Homo sapiens) (UniProt P53355); assay: % Activity remaining of DAPK1 in the Dundee kinase panel at 1.0 µM; conditions: Compound concentration 1.0 uM
[3] = target: Insulin receptor-related protein (Homo sapiens) (UniProt P14616); assay: % Activity remaining of IRR in the Dundee kinase panel at 1.0 µM; conditions: Compound concentration 1.0 uM
[4] = target: Mitogen-activated protein kinase kinase kinase 9 (Homo sapiens) (UniProt P80192); assay: % Activity remaining of MLK1 in the Dundee kinase panel at 1.0 µM; conditions: Compound concentration 1.0 uM
[5] = target: Mitogen-activated protein kinase kinase kinase kinase 2 (Homo sapiens) (UniProt Q12851); assay: % Activity remaining of GCK in the Dundee kinase panel at 1.0 µM; conditions: Compound concentration 1.0 uM
[6] = target: Serine/threonine-protein kinase 24 (Homo sapiens) (UniProt Q9Y6E0); assay: % Activity remaining of MST3 in the Dundee kinase panel at 1.0 µM; conditions: Compound concentration 1.0 uM
[7] = target: Eukaryotic translation initiation factor 2-alpha kinase 3 (Homo sapiens) (UniProt Q9NZJ5); assay: % Activity remaining of EIF2AK3 in the Dundee kinase panel at 1.0 µM; conditions: Compound concentration 1.0 uM
[8] = target: Protein-tyrosine kinase 6 (Homo sapiens) (UniProt Q13882); assay: % Activity remaining of BRK in the Dundee kinase panel at 1.0 µM; conditions: Compound concentration 1.0 uM
[9] = target: Casein kinase I isoform delta (Homo sapiens) (UniProt P48730); assay: % Activity remaining of CK1 delta in the Dundee kinase panel at 1.0 µM; conditions: Compound concentration 1.0 uM
[10] = target: Dual specificity tyrosine-phosphorylation-regulated kinase 2 (Homo sapiens) (UniProt Q92630); assay: % Activity remaining of DYRK2 in the Dundee kinase panel at 1.0 µM; conditions: Compound concentration 1.0 uM
[11] = target: Interleukin-1 receptor-associated kinase 4 (Homo sapiens) (UniProt Q9NWZ3); assay: % Activity remaining of IRAK4 in the Dundee kinase panel at 1.0 µM; conditions: Compound concentration 1.0 uM
[12] = target: Serine/threonine-protein kinase PAK 6 (Homo sapiens) (UniProt Q9NQU5); assay: % Activity remaining of PAK6 in the Dundee kinase panel at 1.0 µM; conditions: Compound concentration 1.0 uM
[13] = target: TGF-beta receptor type-1 (Homo sapiens) (UniProt P36897); assay: % Activity remaining of TGFBR1 in the Dundee kinase panel at 1.0 µM; conditions: Compound concentration 1.0 uM
[14] = target: Phosphorylase b kinase regulatory subunit alpha, liver isoform (Homo sapiens) (UniProt P46019); assay: % Activity remaining of PHK in the Dundee kinase panel at 1.0 µM; conditions: Compound concentration 1.0 uM
[15] = target: Serine/threonine-protein kinase Chk2 (Homo sapiens) (UniProt O96017); assay: % Activity remaining of CHK2 in the Dundee kinase panel at 1.0 µM; conditions: Compound concentration 1.0 uM
[16] = target: MAP kinase-interacting serine/threonine-protein kinase 2 (Homo sapiens) (UniProt Q9HBH9); assay: % Activity remaining of MNK2 in the Dundee kinase panel at 1.0 µM; conditions: Compound concentration 1.0 uM
[17] = target: MAP kinase-interacting serine/threonine-protein kinase 1 (Homo sapiens) (UniProt Q9BUB5); assay: % Activity remaining of MNK1 in the Dundee kinase panel at 1.0 µM; conditions: Compound concentration 1.0 uM
[18] = target: T1, Serine/threonine-protein kinase Sgk1 (Homo sapiens) (UniProt O00141); assay: (§1) % Activity remaining of SGK1 in the Dundee kinase panel at 1.0 µM; conditions: Compound concentration 1.0 uM
T1 sequence (whole entry): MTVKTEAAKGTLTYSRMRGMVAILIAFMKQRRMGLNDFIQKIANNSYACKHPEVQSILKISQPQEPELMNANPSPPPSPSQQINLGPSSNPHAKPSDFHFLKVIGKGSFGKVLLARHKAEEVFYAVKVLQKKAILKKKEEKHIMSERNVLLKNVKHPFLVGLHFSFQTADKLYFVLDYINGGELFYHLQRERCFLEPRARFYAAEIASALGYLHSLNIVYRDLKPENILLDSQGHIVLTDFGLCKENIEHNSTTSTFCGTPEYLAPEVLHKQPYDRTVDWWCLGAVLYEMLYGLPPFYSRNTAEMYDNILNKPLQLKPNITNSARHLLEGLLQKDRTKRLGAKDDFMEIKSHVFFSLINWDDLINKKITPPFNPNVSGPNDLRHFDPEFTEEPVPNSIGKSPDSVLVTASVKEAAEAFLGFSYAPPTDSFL

[19] = target: Serine/threonine-protein kinase Sgk1 (Homo sapiens, UniProt O00141); assay: as §1
[20] = target: Mitogen-activated protein kinase 3 (Homo sapiens) (UniProt P27361); assay: % Activity remaining of ERK1 in the Dundee kinase panel at 1.0 µM; conditions: Compound concentration 1.0 uM
[21] = target: Serine/threonine-protein kinase Sgk3 (Homo sapiens) (UniProt Q96BR1); assay: SGK3 degradation assay at 100 nM (48 h incubation, no effect on RPS6KB1, SGK1 and SGK2); format: functional; set-up: compound concentration 100 nM
[22] = target: Testis-specific serine/threonine-protein kinase 1 (Homo sapiens) (UniProt Q9BXA7); assay: % Activity remaining of TSSK1 in the Dundee kinase panel at 1.0 µM; conditions: Compound concentration 1.0 uM
[23] = target: Serine/threonine-protein kinase Chk1 (Homo sapiens) (UniProt O14757); assay: % Activity remaining of CHK1 in the Dundee kinase panel at 1.0 µM; conditions: Compound concentration 1.0 uM
[24] = target: Eukaryotic elongation factor 2 kinase (Homo sapiens) (UniProt O00418); assay: % Activity remaining of EF2K in the Dundee kinase panel at 1.0 µM; conditions: Compound concentration 1.0 uM
[25] = target: Serine/threonine-protein kinase MARK1 (Homo sapiens) (UniProt Q9P0L2); assay: % Activity remaining of MARK1 in the Dundee kinase panel at 1.0 µM; conditions: Compound concentration 1.0 uM
[26] = target: Serine/threonine-protein kinase OSR1 (Homo sapiens) (UniProt O95747); assay: % Activity remaining of OSR1 in the Dundee kinase panel at 1.0 µM; conditions: Compound concentration 1.0 uM
[27] = target: Ribosomal protein S6 kinase beta-1 (Homo sapiens, UniProt P23443); assay: RPS6KB1 degradation assay; format: functional
[28] = target: T1, Serine/threonine-protein kinase Sgk1 (Homo sapiens); assay: SGK1 degradation assay; format: functional

Serine/threonine-protein kinase Chk2 (Homo sapiens), sequence (O96017 whole entry): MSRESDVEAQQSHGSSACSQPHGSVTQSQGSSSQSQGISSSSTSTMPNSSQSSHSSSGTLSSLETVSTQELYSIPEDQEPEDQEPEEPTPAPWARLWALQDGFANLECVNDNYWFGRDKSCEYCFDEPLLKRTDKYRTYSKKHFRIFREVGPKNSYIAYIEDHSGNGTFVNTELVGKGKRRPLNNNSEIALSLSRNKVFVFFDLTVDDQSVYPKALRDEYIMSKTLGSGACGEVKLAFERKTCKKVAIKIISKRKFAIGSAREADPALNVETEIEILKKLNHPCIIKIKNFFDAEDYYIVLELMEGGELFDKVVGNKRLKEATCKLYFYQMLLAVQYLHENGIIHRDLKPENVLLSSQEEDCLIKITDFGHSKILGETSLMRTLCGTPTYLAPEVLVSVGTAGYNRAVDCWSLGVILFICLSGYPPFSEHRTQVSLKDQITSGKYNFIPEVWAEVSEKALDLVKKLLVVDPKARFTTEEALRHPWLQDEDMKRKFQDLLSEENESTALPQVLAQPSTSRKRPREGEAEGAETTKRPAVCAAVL
Mitogen-activated protein kinase 3 (Homo sapiens), sequence (P27361 whole entry): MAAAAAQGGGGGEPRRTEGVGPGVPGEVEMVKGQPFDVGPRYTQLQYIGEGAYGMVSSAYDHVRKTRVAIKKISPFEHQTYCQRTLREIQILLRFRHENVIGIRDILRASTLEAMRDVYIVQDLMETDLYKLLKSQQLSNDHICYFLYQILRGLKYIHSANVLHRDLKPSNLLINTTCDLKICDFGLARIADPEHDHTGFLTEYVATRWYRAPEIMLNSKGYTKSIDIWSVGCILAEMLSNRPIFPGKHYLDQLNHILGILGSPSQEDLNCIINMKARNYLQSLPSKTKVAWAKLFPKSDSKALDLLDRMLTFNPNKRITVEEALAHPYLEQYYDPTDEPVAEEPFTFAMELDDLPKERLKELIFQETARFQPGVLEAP
Dual specificity tyrosine-phosphorylation-regulated kinase 2 (Homo sapiens), sequence (Q92630 whole entry): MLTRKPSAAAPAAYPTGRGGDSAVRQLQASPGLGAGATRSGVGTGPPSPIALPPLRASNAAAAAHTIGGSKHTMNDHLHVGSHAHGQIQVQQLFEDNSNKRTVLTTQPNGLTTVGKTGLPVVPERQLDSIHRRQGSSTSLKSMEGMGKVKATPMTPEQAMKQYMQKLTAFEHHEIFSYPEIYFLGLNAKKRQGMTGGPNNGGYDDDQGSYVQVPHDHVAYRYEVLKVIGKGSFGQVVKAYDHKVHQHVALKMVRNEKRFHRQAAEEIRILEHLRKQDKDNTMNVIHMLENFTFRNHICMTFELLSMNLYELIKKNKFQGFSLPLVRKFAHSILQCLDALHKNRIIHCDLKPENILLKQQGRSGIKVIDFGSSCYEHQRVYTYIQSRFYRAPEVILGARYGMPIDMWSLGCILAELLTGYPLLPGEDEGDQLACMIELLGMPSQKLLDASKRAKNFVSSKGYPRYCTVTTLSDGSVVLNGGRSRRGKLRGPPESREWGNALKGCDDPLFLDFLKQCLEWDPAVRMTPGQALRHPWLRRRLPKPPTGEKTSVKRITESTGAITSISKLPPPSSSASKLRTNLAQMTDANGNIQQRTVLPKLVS
Eukaryotic translation initiation factor 2-alpha kinase 3 (Homo sapiens), sequence (Q9NZJ5 whole entry): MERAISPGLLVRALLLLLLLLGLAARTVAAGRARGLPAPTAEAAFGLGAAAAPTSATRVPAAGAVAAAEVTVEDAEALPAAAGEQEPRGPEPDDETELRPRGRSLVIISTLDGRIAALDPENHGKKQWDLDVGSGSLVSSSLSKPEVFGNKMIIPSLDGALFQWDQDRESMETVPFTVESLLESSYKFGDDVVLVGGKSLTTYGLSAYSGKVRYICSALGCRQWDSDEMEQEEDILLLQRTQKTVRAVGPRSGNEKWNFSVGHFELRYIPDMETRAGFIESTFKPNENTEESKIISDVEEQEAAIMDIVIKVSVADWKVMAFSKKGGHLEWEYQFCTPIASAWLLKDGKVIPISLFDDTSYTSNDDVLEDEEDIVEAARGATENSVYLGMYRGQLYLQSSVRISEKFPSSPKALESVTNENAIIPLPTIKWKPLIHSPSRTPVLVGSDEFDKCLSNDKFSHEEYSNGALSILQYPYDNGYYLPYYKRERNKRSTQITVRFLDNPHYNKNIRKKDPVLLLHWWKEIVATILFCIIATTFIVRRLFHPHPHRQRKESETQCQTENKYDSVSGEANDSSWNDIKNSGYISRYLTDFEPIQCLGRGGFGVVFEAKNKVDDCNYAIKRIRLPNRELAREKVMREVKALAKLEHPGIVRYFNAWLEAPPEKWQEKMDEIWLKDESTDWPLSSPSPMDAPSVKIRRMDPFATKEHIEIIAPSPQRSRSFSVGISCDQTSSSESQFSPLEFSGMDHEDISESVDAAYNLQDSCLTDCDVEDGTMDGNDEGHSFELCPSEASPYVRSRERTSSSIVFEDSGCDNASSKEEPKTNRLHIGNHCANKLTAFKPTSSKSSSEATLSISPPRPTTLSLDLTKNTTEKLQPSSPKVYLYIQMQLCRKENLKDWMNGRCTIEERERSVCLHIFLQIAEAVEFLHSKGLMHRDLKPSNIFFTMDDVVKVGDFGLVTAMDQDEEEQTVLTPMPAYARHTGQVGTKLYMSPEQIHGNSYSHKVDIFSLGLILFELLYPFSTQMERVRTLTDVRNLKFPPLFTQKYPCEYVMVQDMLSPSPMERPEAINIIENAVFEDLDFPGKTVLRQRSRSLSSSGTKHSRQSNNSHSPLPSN
Mitogen-activated protein kinase kinase kinase 9 (Homo sapiens), sequence (P80192 whole entry, looked up): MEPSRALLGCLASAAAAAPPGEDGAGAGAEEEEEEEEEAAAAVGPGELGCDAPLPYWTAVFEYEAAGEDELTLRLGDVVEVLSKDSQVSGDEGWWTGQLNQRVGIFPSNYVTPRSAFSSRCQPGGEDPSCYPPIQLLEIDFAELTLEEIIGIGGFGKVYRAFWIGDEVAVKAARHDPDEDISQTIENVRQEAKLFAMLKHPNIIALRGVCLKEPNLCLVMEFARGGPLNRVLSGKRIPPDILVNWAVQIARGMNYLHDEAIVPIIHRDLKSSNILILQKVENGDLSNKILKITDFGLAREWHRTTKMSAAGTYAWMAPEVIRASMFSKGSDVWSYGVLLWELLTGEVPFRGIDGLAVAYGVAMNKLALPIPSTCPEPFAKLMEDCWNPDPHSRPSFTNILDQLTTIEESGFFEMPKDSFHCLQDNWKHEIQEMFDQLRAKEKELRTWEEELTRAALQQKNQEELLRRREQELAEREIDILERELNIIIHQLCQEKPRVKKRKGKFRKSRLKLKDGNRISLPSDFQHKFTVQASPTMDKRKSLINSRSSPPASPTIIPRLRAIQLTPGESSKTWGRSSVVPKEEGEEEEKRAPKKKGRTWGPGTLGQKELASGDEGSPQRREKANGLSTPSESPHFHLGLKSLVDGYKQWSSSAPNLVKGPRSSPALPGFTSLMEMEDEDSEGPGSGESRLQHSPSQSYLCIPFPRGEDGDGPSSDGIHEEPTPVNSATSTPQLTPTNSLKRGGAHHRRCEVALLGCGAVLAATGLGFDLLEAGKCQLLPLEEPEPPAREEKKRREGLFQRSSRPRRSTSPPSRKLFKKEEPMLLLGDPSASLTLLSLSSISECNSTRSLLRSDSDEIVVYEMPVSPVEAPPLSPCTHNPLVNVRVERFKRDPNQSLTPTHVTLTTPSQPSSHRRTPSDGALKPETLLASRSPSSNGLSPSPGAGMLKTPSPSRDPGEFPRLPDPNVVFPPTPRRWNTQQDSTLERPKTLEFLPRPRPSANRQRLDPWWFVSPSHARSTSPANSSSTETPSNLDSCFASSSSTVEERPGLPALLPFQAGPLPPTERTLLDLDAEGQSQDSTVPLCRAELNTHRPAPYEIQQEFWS
Serine/threonine-protein kinase 24 (Homo sapiens), sequence (Q9Y6E0 whole entry, looked up): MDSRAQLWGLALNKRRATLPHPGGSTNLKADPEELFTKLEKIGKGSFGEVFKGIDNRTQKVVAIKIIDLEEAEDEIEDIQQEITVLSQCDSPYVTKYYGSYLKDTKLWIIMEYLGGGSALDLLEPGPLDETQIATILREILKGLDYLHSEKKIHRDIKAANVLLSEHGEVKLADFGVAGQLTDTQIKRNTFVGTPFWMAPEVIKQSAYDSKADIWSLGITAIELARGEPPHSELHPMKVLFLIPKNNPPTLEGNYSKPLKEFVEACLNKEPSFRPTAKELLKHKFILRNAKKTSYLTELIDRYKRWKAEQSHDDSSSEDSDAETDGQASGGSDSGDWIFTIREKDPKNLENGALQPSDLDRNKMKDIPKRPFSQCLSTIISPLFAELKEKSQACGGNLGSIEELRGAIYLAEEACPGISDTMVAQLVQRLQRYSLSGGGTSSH
MAP kinase-interacting serine/threonine-protein kinase 1 (Homo sapiens), sequence (Q9BUB5 whole entry, looked up): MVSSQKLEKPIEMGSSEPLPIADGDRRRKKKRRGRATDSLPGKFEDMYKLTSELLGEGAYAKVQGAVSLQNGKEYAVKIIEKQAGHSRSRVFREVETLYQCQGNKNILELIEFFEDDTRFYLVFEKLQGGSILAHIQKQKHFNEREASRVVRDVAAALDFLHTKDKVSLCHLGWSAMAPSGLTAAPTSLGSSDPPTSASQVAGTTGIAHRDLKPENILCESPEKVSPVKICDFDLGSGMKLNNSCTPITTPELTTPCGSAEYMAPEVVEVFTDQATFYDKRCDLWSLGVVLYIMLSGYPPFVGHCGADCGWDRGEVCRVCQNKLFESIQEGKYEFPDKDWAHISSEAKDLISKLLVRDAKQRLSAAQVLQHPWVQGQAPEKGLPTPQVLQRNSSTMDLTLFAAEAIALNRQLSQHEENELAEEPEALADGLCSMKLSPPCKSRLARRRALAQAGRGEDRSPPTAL
Testis-specific serine/threonine-protein kinase 1 (Homo sapiens), sequence (Q9BXA7 whole entry): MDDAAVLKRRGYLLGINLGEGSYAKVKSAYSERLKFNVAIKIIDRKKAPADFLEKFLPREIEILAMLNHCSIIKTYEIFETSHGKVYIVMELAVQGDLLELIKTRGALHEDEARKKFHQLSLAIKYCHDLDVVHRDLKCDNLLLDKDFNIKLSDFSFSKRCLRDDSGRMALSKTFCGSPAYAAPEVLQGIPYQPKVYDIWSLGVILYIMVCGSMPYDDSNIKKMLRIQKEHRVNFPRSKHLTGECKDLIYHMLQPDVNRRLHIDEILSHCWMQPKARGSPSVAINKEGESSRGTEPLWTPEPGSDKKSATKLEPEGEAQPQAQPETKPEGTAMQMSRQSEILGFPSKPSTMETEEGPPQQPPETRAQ

SMILES	% Activity remaining [1] [%]	% Activity remaining [2] [%]	% Activity remaining [3] [%]	% Activity remaining [4] [%]	% Activity remaining [5] [%]	% Activity remaining [6] [%]	% Activity remaining [7] [%]	% Activity remaining [8] [%]	% Activity remaining [9] [%]	% Activity remaining [10] [%]	% Activity remaining [11] [%]	% Activity remaining [12] [%]	% Activity remaining [13] [%]	% Activity remaining [14] [%]	% Activity remaining [15] [%]	% Activity remaining [16] [%]	% Activity remaining [17] [%]	% Activity remaining [18] [%]	IC50 [19] [nM]	% Activity remaining [20] [%]	other results
Cc1ccc(F)c(S(=O)(=O)Nc2ccc(-c3nc(OC[C@H]4CN(CCCCCCOCCOCCOCC(=O)N[C@H](C(=O)N5C[C@@H](O)C[C@H]5C(=O)NCc5ccc(-c6scnc6C)cc5)C(C)(C)C)CCO4)c4cn[nH]c4n3)cc2)c1	104	108	89.9	93.9	96.3	113	111	105	108	97.3	98	99.5	114	122	99.1	122	103	50.9	1400	101	Degradation [21]: 0%; % Activity remaining [22]: 113%; % Activity remaining [23]: 126%; % Activity remaining [24]: 105%; % Activity remaining [25]: 93%; % Activity remaining [26]: 118%
Cc1ccc(F)c(S(=O)(=O)Nc2ccc(-c3nc(OC[C@H]4CN(CCCCCCOCCOCCOCC(=O)N[C@H](C(=O)N5C[C@H](O)C[C@H]5C(=O)NCc5ccc(-c6scnc6C)cc5)C(C)(C)C)CCO4)c4cn[nH]c4n3)cc2)c1	102	100	103	81.9	99	102	106	86.8	95	102	114	97.9	124	113	84.8	122	108	34.5	220	103	Degradation [27]: 0%; Degradation [28]: 0%; Degradation [21]: 65%; % Activity remaining [22]: 115%; % Activity remaining [23]: 111%; % Activity remaining [24]: 97.5%; % Activity remaining [25]: 99.4%; % Activity remaining [26]: 103%

— ChEMBL document CHEMBL5463727, “Data for DCP probe SGK3-PROTAC1” (2023)
